Measured values as given in article PMC8719441, “Tonoplast-Localized Theanine Transporter CsCAT2 May Mediate Theanine Storage in the Root of Tea Plants (Camellia sinensis L.)” (Frontiers in Plant Science, 2021).

B1: CsCAT2 (Camellia sinensis) (protein)
chain: MGFRCDSQNDGGACPWTCGFKGLIRRKQVDSIHAKSSGSGHHQLAKELSVFHLIAIGVGSTIGAGVYILVGTVAREHSGPALTFSFLIAGIAAALSAFCYAELASRCPSAGSAYHYSYICVGEGVAWLIGWALILEYTIGGSAVARGISPNLALLFGGADSLPFFLARQHLPGLDIVVDPCAALLVIVVTGLLCVGIKESTLVQSIVTTANVCAMLFVIIAGGYLGFKSGWVGYELPVGYFPFGVDGMLAGAATVFFAYIGFDSVASTAEEVKNPQRDLPLGIAAALSICCMLYMLVSVVIVGLVPYYAMDPDTPISSAFASHGMQWAAYIITAGATTALCSTLMGSMLPQPRILMAMSRDGLLPSIFSDVNKRTQVPIKSTVITGVVAAILAFIMDVEQLAGMVSVGTLLAFTMVAISVLILRYVPPDEVPIPSSLQESIDSVSLRYSTSNDNIEEEKPKDHIGSSTQSTRLLLGKVDRPIAYPLIPKQAATILNDNRRKIAGWTIMFTCVGVLLLTSAASSVGLLPSYFRFGVCGIGVVLILSGLVVLTCIDQDDARHSFGHTGGFICPFVPLLPIACVLINVYLLINLGSATWTRVSIWLLIGVLVYAFYGRTHSSLKDAVYVPATHVEEIYRSSENSLP
notes: no tag mentioned

Tests used:
CsCAT2 = molecular target: T1, CsCAT2 (Camellia sinensis, UniProt A0A2R3U877); experiment: competition with theanine uptake in yeast […]Δ[…]α-CsCAT2, HPLC-UV; growth on sole nitrogen source; format: cell-based; conditions: 200 μM theanine, 10 min
T1 construct: gene CAT2; no tag mentioned

[1] = substrate: CCNC(=O)CC[C@H](N)C(=O)O; experiment: cells, lysate or membranes; format: cell-based, Camellia sinensis; conditions: 0.09375-8 mM theanine, 0-20 min, after 2 h nitrogen starvation; H+-coupled

Molecule | % theanine uptake at 2 mM competitor (CsCAT2) | Km [1] [µM]
C[C@H](N)C(=O)O [alanine] | CsCAT2's capacity to transport theanine was significantly suppressed by these amino acids | 
N[C@@H](CC(=O)O)C(=O)O [aspartic acid] | CsCAT2's capacity to transport theanine was significantly suppressed by these amino acids | 
N[C@@H](CCC(=O)O)C(=O)O [glutamate] | CsCAT2's capacity to transport theanine was significantly suppressed by these amino acids | 
NC(=O)CC[C@H](N)C(=O)O [glutamine] | CsCAT2's capacity to transport theanine was significantly suppressed by these amino acids | 
CC(C)[C@H](N)C(=O)O [valine] | CsCAT2's capacity to transport theanine was significantly suppressed by these amino acids | 
B1 |  | 450
